# Data as given in patent publication US7812021B2, “Pyrrolidine aryl-ether as NK3 receptor antagonists” (Hoffmann-La Roche Inc., priority 2007, dated 2010).
# Target: T1, recombinant human NK3 receptor (Homo sapiens, UniProt P29371)
# T1 construct: expressed in transfected cells; host or cells: HEK293 cells, transient expression; membranes
# T1 sequence (P29371 1-465): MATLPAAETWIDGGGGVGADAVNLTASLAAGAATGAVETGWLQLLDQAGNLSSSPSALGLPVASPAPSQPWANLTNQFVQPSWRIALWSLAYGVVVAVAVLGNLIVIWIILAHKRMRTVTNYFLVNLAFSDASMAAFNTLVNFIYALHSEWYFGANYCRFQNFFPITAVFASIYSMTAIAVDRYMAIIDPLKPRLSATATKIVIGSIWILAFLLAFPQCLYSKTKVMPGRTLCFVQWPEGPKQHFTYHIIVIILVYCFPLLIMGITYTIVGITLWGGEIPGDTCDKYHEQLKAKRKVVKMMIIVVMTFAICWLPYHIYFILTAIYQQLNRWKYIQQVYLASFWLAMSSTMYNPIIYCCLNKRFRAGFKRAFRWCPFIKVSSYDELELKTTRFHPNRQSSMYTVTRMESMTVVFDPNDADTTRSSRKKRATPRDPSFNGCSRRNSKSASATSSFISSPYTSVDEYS
# Assay: [3H]SR142801 competition binding assay
# Conditions: membranes from HEK293 cells transiently expressing recombinant human NK3 receptor; [3H]SR142801 radioligand; Ki by Cheng-Prussoff
# Description: [^3H]SR142801 Competition Binding Assay
# hNK3 receptor binding experiment were performed using [^3H]SR142801 (Catalog No. TRK1035, specific activity: 74.0 Ci/mmol, Amersham, GE Healthcare UK limited, Buckinghamshire, UK) and membrane isolated from HEK293 cells transiently expressing recombinant human NK3 receptor. After thawing, the membrane homogenates were centrifuged at 48,000×g for 10 min at 4° C., the pellets were resuspended in the 50 mM Tris-HCl, 4 mM MnCl2, 1 μM phosphoramidon, 0.1% BSA binding buffer at pH 7.4 to a final assay concentration of 5 μg protein/well. For inhibition experiments, membranes were incubated with [^3H]SR142801 at a concentration equal to KD value of radioligand and 10 concentrations of the inhibitory compound (0.0003-10 μM) (in a total reaction volume of 500 μl) for 75 min at room temperature (RT). At the end of the incubation, membranes were filtered onto unit filter (96-well white microplate with bonded GF/C filter preincubated 1 h in 0.3% PEI+0.3% BSA, Packard BioScience, Meriden, Conn.) with a Filtermate 196 harvester (Packard BioScience) and washed 4 times with ice-cold 50 mM Tris-HCl, pH 7.4 buffer. Nonspecific binding was measured in the presence of 10 μM SB222200 for both radioligands. The radioactivity on the filter was counted (5 min) on a Packard Top-count microplate scintillation counter with quenching correction after addition of 45 μl of microscint 40 (Canberra Packard S. A., Zürich, Switzerland) and shaking for 1 h. Inhibition curves were fitted according to the Hill equation: y=100/(1+(x/IC50)^nH), where nH=slope factor using Excel-fit 4 software (Microsoft). IC50 values were derived from the inhibition curve and the affinity constant (Ki) values were calculated using the Cheng-Prussoff equation Ki=IC50/(1+[L]/KD) where [L] is the concentration of radioligand and KD is its dissociation constant at the receptor, derived from the saturation isotherm. All experiments were performed in duplicate and the mean±standard error (SEM) of the individual Ki values was calculated.
row,Molecule,Ki
1,"C[C@@H](Oc1ncc(F)cn1)[C@@H]1CN(C(=O)N2CCN(S(C)(=O)=O)CC2)C[C@H]1c1ccc(Cl)c(Cl)c1 (racemic) [Example 51, {(3RS,4SR)-3-(3,4-Dichloro-phenyl)-4-[(RS)-1-(5-fluoro-pyrimidin-2-yloxy)-ethyl]-pyrrolidin-1-yl}-(4-methanesulfonyl-piperazin-1-yl)-methanone]",23.7 nM
2,C[C@@H](Oc1ccc(C(F)(F)F)cc1)[C@@H]1CN(C(=O)N2CCN(CCN(C)C)CC2)C[C@H]1c1ccc(Cl)c(Cl)c1 (racemic) [Example 52],42.5 nM
3,"C[C@@H](Oc1ncc(Cl)cn1)[C@@H]1CN(C(=O)N2CCN(S(C)(=O)=O)CC2)C[C@H]1c1ccc(Cl)c(Cl)c1 (racemic) [Example 53, [(3SR,4RS)-3-[(RS)-1-(5-Chloro-pyrimidin-2-yloxy)-ethyl]-4-(3,4-dichloro-phenyl)-pyrrolidin-1-yl]-(4-methanesulfonyl-piperazin-1-yl)-methanone]",6.8 nM
4,"C[C@@H](Oc1ccc(Cl)cn1)[C@@H]1CN(C(=O)CCCCN2CCOCC2)C[C@H]1c1ccc(Cl)c(Cl)c1 (racemic) [Example 55, 1-[(3SR,4RS)-3-[(RS)-1-(5-Chloro-pyridin-2-yloxy)-ethyl]-4-(3,4-dichloro-phenyl)-pyrrolidin-1-yl]-5-morpholin-4-yl-pentan-1-one]",20 nM
5,"C[C@@H](Oc1ccc(Cl)cn1)[C@@H]1CN(C(=O)N2CCN(CCN(C)C)CC2)C[C@H]1c1ccc(Cl)c(Cl)c1 (racemic) [Example 56, [(3SR,4RS)-3-[(RS)-1-(5-Chloro-pyridin-2-yloxy)-ethyl]-4-(3,4-dichloro-phenyl)-pyrrolidin-1-yl]-[4-(2-dimethylamino-ethyl)-piperazin-1-yl]-methanone]",2.6 nM
6,"C[C@H](Oc1ccc(F)cn1)[C@@H]1CN(C(=O)N2CCN(S(C)(=O)=O)CC2)C[C@H]1c1ccc(Cl)c(Cl)c1 (racemic) [Example 57, {(3RS,4SR)-3-(3,4-Dichloro-phenyl)-4-[(SR)-1-(5-fluoro-pyridin-2-yloxy)-ethyl]-pyrrolidin-1-yl}-(4-methanesulfonyl-piperazin-1-yl)-methanone]",64.7 nM
7,"C[C@@H](Oc1ccc(F)cn1)[C@@H]1CN(C(=O)N2CCN(S(C)(=O)=O)CC2)C[C@H]1c1ccc(Cl)c(Cl)c1 (racemic) [Example 59, {(3RS,4SR)-3-(3,4-Dichloro-phenyl)-4-[(RS)-1-(5-fluoro-pyridin-2-yloxy)-ethyl]-pyrrolidin-1-yl}-(4-methanesulfonyl-piperazin-1-yl)-methanone]",12.6 nM
8,"C[C@@H](Oc1ccc(Cl)cn1)[C@@H]1CN(C(=O)N2CC3(COC3)C2)C[C@H]1c1ccc(Cl)c(Cl)c1 (racemic) [Example 61, [(3SR,4RS)-3-[(RS)-1-(5-Chloro-pyridin-2-yloxy)-ethyl]-4-(3,4-dichloro-phenyl)-pyrrolidin-1-yl]-(2-oxa-6-aza-spiro[3.3]hept-6-yl)-methanone]",39 nM
9,"C[C@@H](Oc1ccc(Cl)cn1)[C@@H]1CN(C(=O)N2CCN3C(=O)CCC3C2)C[C@H]1c1ccc(Cl)c(Cl)c1 (mixture of isomers) [Example 62, 2-[(3SR,4RS)-3-[(RS)-1-(5-Chloro-pyridin-2-yloxy)-ethyl]-4-(3,4-dichloro-phenyl)-pyrrolidine-1-carbonyl]-hexahydro-pyrrolo[1,2-a]pyrazin-6-one]",24 nM
10,CS(=O)(=O)N1CCN(C(=O)N2C[C@@H](COc3ccc(Cl)cn3)[C@H](c3ccc(Cl)c(Cl)c3)C2)CC1 (racemic) [Example 63],12 nM
11,"CC(=O)NC1(c2ccccc2)CCN(CC(=O)N2C[C@@H]([C@@H](C)Oc3ccc(Cl)cc3)[C@H](c3ccc(Cl)c(Cl)c3)C2)CC1 (racemic) [Example 64, N-(1-{2-[(3SR,4RS)-3-[(RS)-1-(4-Chloro-phenoxy)-ethyl]-4-(3,4-dichloro-phenyl)-pyrrolidin-1-yl]-2-oxo-ethyl}-4-phenyl-piperidin-4-yl)-acetamide]",19 nM
12,"CC(=O)N1CCN(CC(=O)N2C[C@@H]([C@@H](C)Oc3ccc(Cl)cc3)[C@H](c3ccc(Cl)c(Cl)c3)C2)CC1 (racemic) [Example 66, 2-(4-Acetyl-piperazin-1-yl)-1-[(3SR,4RS)-3-[(RS)-1-(4-chloro-phenoxy)-ethyl]-4-(3,4-dichloro-phenyl)-pyrrolidin-1-yl]-ethanone]",11 nM
13,"C[C@@H](Oc1ccc(Cl)cc1)[C@@H]1CN(C(=O)CN2CCC(CO)CC2)C[C@H]1c1ccc(Cl)c(Cl)c1 (racemic) [Example 67, 1-[(3SR,4RS)-3-[(RS)-1-(4-Chloro-phenoxy)-ethyl]-4-(3,4-dichloro-phenyl)-pyrrolidin-1-yl]-2-(4-hydroxymethyl-piperidin-1-yl)-ethanone]",53 nM
14,"C[C@H](Oc1ccc(C(F)(F)F)cn1)[C@H]1CN(C(=O)N2CCN(S(C)(=O)=O)CC2)C[C@@H]1c1ccc(Cl)c(Cl)c1 (racemic) [Example 69, {(3SR,4RS)-3-(3,4-Dichloro-phenyl)-4-[(SR)-1-(5-trifluoromethyl-pyridin-2-yloxy)ethyl]-pyrrolidin-1-yl}-(4-methanesulfonyl-piperazin-1-yl)-methanone]",5.6 nM
15,"C[C@H](Oc1ccc(C#N)cn1)[C@H]1CN(C(=O)CN2CCC(C#N)CC2)C[C@@H]1c1ccc(Cl)c(Cl)c1 (racemic) [Example 70, 6-{(SR)-1-[(3RS,4SR)-1-[2-(4-Cyano-piperidin-1-yl)-acetyl]-4-(3,4-dichloro-phenyl)-pyrrolidin-3-yl]-ethoxy}-nicotinonitrile]",86 nM
16,C[C@H](Oc1ccc(C#N)cn1)[C@H]1CN(C(=O)N2CCC(C#N)CC2)C[C@@H]1c1ccc(Cl)c(Cl)c1 (racemic) [Example 71],8.7 nM
17,"C[C@H](Oc1ccc(C(F)(F)F)cn1)[C@H]1CN(C(=O)N2CC3CC2CO3)C[C@@H]1c1ccc(Cl)c(Cl)c1 (mixture of isomers) [Example 73, {(3SR,4RS)-3-(3,4-Dichloro-phenyl)-4-[(SR)-1-(5-trifluoromethyl-pyridin-2-yloxy)-ethyl]-pyrrolidin-1-yl}-(2-oxa-5-aza-bicyclo[2.2.1]hept-5-yl)-methanone]",93 nM
18,"C[C@@H](Oc1ccc(Cl)cn1)[C@@H]1CN(C(=O)CN2CC3CC2CO3)C[C@H]1c1ccc(Cl)c(Cl)c1 (stereo partly drawn) [Example 68, 1-[(3S,4R)-3-[(R)-1-(5-Chloro-pyridin-2-yloxy)-ethyl]-4-(3,4-dichloro-phenyl)-pyrrolidin-1-yl]-2-(2-oxa-5-aza-bicyclo[2.2.1]hept-5-yl)-ethanone]",27 nM
19,"N-(1-{2-[(3SR,4RS)-[3-(RS)-1-(4-Chloro-phenoxy)-ethyl]-4-(3,4-dichloro-phenyl)-pyrrolidin-1-yl]-2-oxo-ethyl}-piperidin-4-yl)-N-methyl-acetamide [Example 65]",20 nM

# System: not given
# Assay: not given
# Conditions: phase II trial; altered behaviour, delusion, hallucinations, extreme emotions, excited motor activity, incoherent speech; cited from earlier work
row,Molecule,activity on positive symptoms of schizophrenia
1,"CC(=O)N(C)C1(c2ccccc2)CCN(CCC[C@]2(c3ccc(Cl)c(Cl)c3)CCCN(C(=O)c3ccccc3)C2)CC1 [SR 142,801, Osanetant]",active

# Same assay, conditions: phase II trial; depression, anhedonia, social isolation, memory and attention deficits; cited from earlier work
row,Molecule,activity in the treatment of negative symptoms of schizophrenia
1,"CC(=O)N(C)C1(c2ccccc2)CCN(CCC[C@]2(c3ccc(Cl)c(Cl)c3)CCCN(C(=O)c3ccccc3)C2)CC1 [SR 142,801, Osanetant]",inactive
